Measurements reported in patent publication US5955055A, “Synthetic peptides for arterial imaging at vascular imaging sites” (New England Deaconess Hospital Corporation, priority 1995, dated 1999).
Ends that are not written are not given here.

test system: not listed separately; assay: Plasma decay of 125I-labelled synthetic peptide after injection into the marginal ear vein; format: in vivo, rabbit; settings: at four hours
Procedure: Each labelled synthetic peptide preparation (containing, for example, 150 to 400 or more μCi of ^125 I-labelled peptide) in column elution buffer was injected into the marginal ear vein of the ballooned and healing New Zealand white rabbits or WHHL rabbits. Serial blood samples were obtained from the opposite ear during the ensuing 0-24 hours and were analyzed for radioactivity. The labelled peptide concentrations in the blood samples that were withdrawn over the first 10 minutes after injection were extrapolated to zero time to determine the time zero radioactivity in the calculation of average plasma radioactivity. […] Peptides SP15a, SP17, SP19a, SP21a, SP28, SP34a, and SP30 were cleared rapidly from the plasma with half-lives of about one minute or less; after one hour, the plasma levels were less than 10% of the injected dose and fell by an additional 1% over the next three hours. Peptides SP15a, SP17, SP21a, SP28, SP34a, and SP30 leveled off to a plasma level of 3-6%; peptide SP19a cleared more quickly and leveled off to a concentration of 0.3% (at four hours).
Control peptides used were SP-2 (part of the heparin and LDL receptor binding site of apolipoprotein E) and SP-11A which is a receptor and heparin binding domain of apolipoprotein B. To compare the relative accumulation of the ^125 I-labelled synthetic peptides in the aorta and adrenal gland, it was necessary to correct for differences in mean plasma concentration of the labelled compounds. The mean concentration of synthetic peptide-associated ^125 I radioactivity was calculated by numerical integration of the plasma decay curves and division by the time since injection of the isotope.

Substance	Plasma level at which the peptide leveled off
Ac-YAKFRETLEDTRDRMY-NH2 [SP-15a, CH3 CONH-Tyr-Ala-Lys-Phe-Arg-Glu-Thr-Leu-Glu-Asp-Thr-Arg-Asp-Arg-Met-Tyr-CONH2]	3-6%
Ac-YRALVDTEFKVKQEAGAK-NH2 [SP-21a, CH3 CONH-Tyr-Arg-Ala-Leu-Val-Asp-Thr-Glu-Phe-Lys-Val-Lys-Gln-Glu-Ala-Gly-Ala-Lys-CONH2]	3-6%
Ac-YRALVDTLKFVTEQAKGA-NH2 [SP-19a, CH3 CONH-Tyr-Arg-Ala-Leu-Val-Asp-Thr-Leu-Lys-Phe-Val-Thr-Glu-Gln-Ala-Lys-Gly-Ala-CONH2]	0.3%
Ac-YVLDEFREKLNEELEALKQK-NH2 [SP-34a]	3-6%
YAALDLNAVANKIADFEL-NH2 [SP-17, H2 N-Tyr-Ala-Ala-Leu-Asp-Leu-Asn-Ala-Val-Ala-Asn-Lys-Ile-Ala-Asp-Phe-Glu-Leu- CONH2]	3-6%
YVGVAPGVGVAPGVGVAPG [SP-28, H2 N-Tyr-Val-Gly-Val-Ala-Pro-Gly-val-Gly-Val-Ala-Pro-Gly-Val-Gly-Val-Ala-Pro- Gly-OH]	3-6%
YVPGVGVPGVGVPGVGVPGVG-NH2 [SP-30, H2 N-Tyr-Val-Pro-Gly-Val-Gly-Val-Pro-Gly-Val-Gly-Val-Pro-Gly-Val-Gly-Val-Pro- Gly-Val-Gly-CONH2]	3-6%

test system: anti-SP-4 antiserum; assay: ELISA for immunological cross-reactivity with anti-SP-4 antiserum; format: binding, rabbit; settings: ELISA plates coated with LDL or peptide, 100 ng per well
Procedure: To determine whether the molecular conformation or structure of the synthetic apoB peptides was analogous to the conformation of the apoB moiety of LDL, a polyclonal antiserum was raised to each peptide and its ability to bind LDL tested. Antiserum raised to human LDL was used as the control. To produce anti-synthetic peptide antisera, purified synthetic peptide was dissolved in PBS, pH 7.4 at a concentration of 1 mg/ml. The peptide solution was mixed with an equal volume of complete Freund's adjuvant and vortexed thoroughly until a thick emulsion was produced. New Zealand White rabbits (Millbrook Farms, Amherst, Mass.) were injected with a total of 0.5 mg synthetic peptide administered subcutaneously in the four dorsal quadrants. The rabbits were given a boost (injected at the same sites) with 0.5 mg peptide emulsified in incomplete Freund's adjuvant 2-3 weeks later. Eight to ten days after the first boost, the animals were given a second, identical boost and were bled of 30 ml 8 to 10 days later. To test for immunological cross-reactivity microtiter plates (Immulon II Dynatech Labs, Chantilly, Va.) were coated with the purified synthetic peptide or LDL by an overnight incubation at 4° C. with 100 ng peptide per well in 50 mM carbonate, pH 9.6, and blocked for nonspecific binding with an additional overnight incubation with phosphate-buffered saline, pH 7.4 (PBS), 1% bovine serum albumin (BSA). Control wells were coated with BSA alone. After washing twice with PBS, the wells were filled with serial dilutions (1:10 to 1:100,000 made in PBS, 3% BSA) of a rabbit polyclonal antibody generated against the synthetic peptide(s) and incubated for 45 minutes at room temperature. Following thorough washing (3× with PBS, 0.1% BSA), the wells were filled with a 1:2000 dilution of goat anti-rabbit IgG-horseradish peroxidase conjugate (Atlantic Antibodies, Scarborough, Me.). After a final wash, the wells were filled with 3,3'-5,5'-tetramethybenzidine (TMB) microwell peroxidase substrate (Kirkegaard and Perry Labs, Gaithersburg, Md.) and read at 650 nm every two minutes on an ELISA-5 automated plate reader (Physica, New York, N.Y.). Results (see, e.g., FIGS. 4 and 5) are expressed as the initial velocity of substrate conversion (change in OD650 /hr), which is determined by a linear regression of 15 data points per well. Each data point represents the average of three measured data points from the same plate, run at the same time.

Substance	Binding of anti-SP-4 antiserum to coated antigen
Ac-YKLALEAARLLADAEGAK-NH2 [SP-6A, CH3 CONH-Tyr-Lys-Leu-Ala-Leu-Glu-Ala-Ala-Arg-Leu-Leu-Ala-Asp-Ala-Glu-Gly-Ala-Lys-CONH2]	shown to bind
Ac-YKLALEAARLLANAEGAK-NH2 [SP-8A, CH3 CONH-Tyr-Lys-Leu-Ala-Leu-Glu-Ala-Ala-Arg-Leu-Leu-Ala-Asn-Ala-Glu-Gly-Ala-Lys-CONH2]	shown to bind
Ac-YRALVDTLK-NH2 [SP-14A, CH3 CONH-Tyr-Arg-Ala-Leu-Val-Asp-Thr-Leu-Lys-CONH2]	shown to bind
Ac-YRALVDTLKFVTQAEGAK-NH2 [SP-4A, CH3 CONH-Tyr-Arg-Ala-Leu-Val-Asp-Thr-Leu-Lys-Phe-Val-Thr-Gln-Ala-Glu-Gly-Ala-Lys-CONH2]	shown to bind
Ac-YRALVDYLKFVTQL-NH2 [SP-12A, CH3 CONH-Tyr-Arg-Ala-Leu-Val-Asp-Tyr-Leu-Lys-Phe-Val-Thr-Gln-Leu-CONH2]	shown to bind
YKLALEAARLLADAEGAK-NH2 [SP-6, H2 N-Tyr-Lys-Leu-Ala-Leu-Glu-Ala-Ala-Arg-Leu-Leu-Ala-Asp-Ala-Glu-Gly-Ala-Lys- CONH2]	shown to bind
YKLALEAARLLANAEGAK-NH2 [SP-8, H2 N-Tyr-Lys-Leu-Ala-Leu-Glu-Ala-Ala-Arq-Leu-Leu-Ala-Asn-Ala-Glu-Gly-Ala-Lys- CONH2]	shown to bind
YRALVDTLKFVTQAEGAK-NH2 [SP-4, NH2 -Tyr-Arg-Ala-Leu-Val-Asp-Thr-Leu-LYs-Phe-Val-Thr-Gln-Ala-Glu-Gly-Ala-Lys-CONH2]	shown to bind
